Data published in the supplement of paper PMC11061612.

How the values were obtained:
[1] = compound: C1CN(CCC1(C(=O)N[C@@H](CCO)C2=CC=C(C=C2)Cl)N)C3=NC=NC4=C3C=CN4 [Capivasertib]; details: max 10 µM
Outline: (§1)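 Viability was measured with CellTiter-Glo 2.0 luminescence after 72 hours of dosing at a final DMSO of typically 0.2%, and scaled between blank-well and DMSO-well means. Beforehand, cancer cell lines sat 24 hours at 37°C and 5% CO2 in 1536-well plates in 7.5 μl DMEM/F12 or RPMI with 10% FBS. A non-linear mixed effects model fitted two-parameter logistic curves to the dose responses. The single-agent IC50 comes from these fits.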

[2] = compound: C=CCn1c(=O)c2cnc(Nc3ccc(N4CCN(C)CC4)cc3)nc2n1-c1cccc(C(C)(C)O)n1 [AZD1775]; details: max 3 µM
Outline: as §1

[3] = compound: CC(=O)Nc1cccc(-n2c(=O)n(C3CC3)c(=O)c3c(Nc4ccc(I)cc4F)n(C)c(=O)c(C)c32)c1 [Trametinib]; details: max 1 µM
Outline: as §1

[4] = compound: CC(=O)c1c(C)c2cnc(Nc3ccc(N4CCNCC4)cn3)nc2n(C2CCCC2)c1=O [Palbociclib]; details: max 10 µM
Outline: as §1

[5] = compound: CC(C)n1c(=O)n(C)c2cnc3cc(F)c(-c4ccc(OCCCN5CCCCC5)nc4)cc3c21 [AZD1390]; details: max 0.3 µM
Outline: as §1

[6] = compound: CC1(C)CCC(CN2CCN(c3ccc(C(=O)NS(=O)(=O)c4ccc(NCC5CCOCC5)c([N+](=O)[O-])c4)c(Oc4cnc5[nH]ccc5c4)c3)CC2)=C(c2ccc(Cl)cc2)C1 [Venetoclax]; details: max 1 µM
Outline: as §1

[7] = compound: CC1=C(C(=CC=C1)Cl)NC(=O)C2=CN=C(S2)NC3=CC(=NC(=N3)C)N4CCN(CC4)CCO [Dasatinib]; details: max 2 µM
Outline: as §1

[8] = compound: CC1=CN2[C@@H](C1)C=NC3=CC(=C(C=C3C2=O)OC)OCCCCCOC4=C(C=C5C(=C4)N=C[C@@H]6CC(=CN6C5=O)C)OC [SG3199]; details: max 0.001 µM
Outline: as §1

[9] = compound: CCN(CCO)CCCOc1ccc2c(Nc3cc(CC(=O)Nc4cccc(F)c4)[nH]n3)ncnc2c1 [AZD2811]; details: max 1 µM
Outline: as §1

[10] = compound: CCc1c2c(nc3ccc(O)cc13)-c1cc3c(c(=O)n1C2)COC(=O)[C@]3(O)CC [SN-38]; details: max 0.3 µM
Outline: as §1

[11] = compound: CN(C)CCCOc1ccc(-c2ccc3ncc4c(c3c2)n(C2CCOCC2)c(=O)n4C)cn1 [AZD0156]; details: max 3 µM
Outline: as §1

[12] = compound: CN(CC[C@H](CSC1=CC=CC=C1)NC2=C(C=C(C=C2)S(=O)(=O)NC(=O)C3=CC=C(C=C3)N4CCC(CC4)[C@H](C5=CC=CC=C5C6=CC=C(C=C6)Cl)O)S(=O)(=O)C(F)(F)F)CCO [AZD4320]; details: max 1 µM
Outline: as §1

[13] = compound: COc1cc(Nc2ncc3c(n2)-c2ccc(Cl)cc2C(c2c(F)cccc2OC)=NC3)ccc1C(=O)O [Alisertib]; details: max 10 µM
Outline: as §1

[14] = compound: COc1cc2ncnc(Nc3ccc(F)c(Cl)c3)c2cc1OCCCN1CCOCC1 [Gefitinib]; details: max 10 µM
Outline: as §1

[15] = compound: COc1cccc(OCCCN)c1-c1cc(Nc2cnc(C#N)cn2)n[nH]1 [Prexasertib]; details: max 1 µM
Outline: as §1

[16] = compound: COc1cccc2c1C(=O)c1c(O)c3c(c(O)c1C2=O)C[C@@](O)(C(=O)CO)C[C@@H]3O[C@H]1C[C@H](N)[C@H](O)[C@H](C)O1 [Doxorubicin]; details: max 1 µM
Outline: as §1

[17] = compound: COc1nnc2ccc(N3CCC(c4ccc(OCCN5CCN(C)C(=O)[C@H]5C)cc4)CC3)nn12 [AZD5153]; details: max 1 µM
Outline: as §1

[18] = compound: CS(=O)(=O)CCNCc1ccc(-c2ccc3ncnc(Nc4ccc(OCc5cccc(F)c5)c(Cl)c4)c3c2)o1 [Lapatinib]; details: max 10 µM
Outline: as §1

[19] = compound: C[C@@H](Nc1cc(F)cc(F)c1)c1cc(C(=O)N(C)C)cc2c(=O)cc(N3CCOCC3)oc12 [AZD8186]; details: max 3 µM
Outline: as §1

[20] = compound: C[C@@H](Oc1cc(-c2cnn(C3CCNCC3)c2)cnc1N)c1c(Cl)ccc(F)c1Cl [Crizotinib]; details: max 10 µM
Outline: as §1

[21] = compound: C[C@@H](c1ccc2nccn2c1)n1nnc2ncc(-c3cnn(C)c3)nc21 [Savolitinib]; details: max 1 µM
Outline: as §1

[22] = compound: C[C@@H]1COCCN1C2=NC(=NC(=C2)C3(CC3)[S@](=N)(=O)C)C4=C5C=CNC5=NC=C4 [AZD6738]; details: max 10 µM
Outline: as §1

[23] = compound: Cc1c2c(nn1C)CSCc1cc(n(C)n1)CSc1cc(c3ccccc3c1)OCCCc1c(C(=O)O)n(C)c3c-2c(Cl)ccc13 [AZD5991]; details: max 1 µM
Outline: as §1

[24] = compound: Cc1cc2ncnn2cc1Nc1ncc2c(n1)n(C1CCOCC1)c(=O)n2C [AZD7648]; details: max 10 µM
Outline: as §1

[25] = compound: Cc1nc(-c2cn3c(n2)-c2ccc(-c4cnn(C(C)(C)C(N)=O)c4)cc2OCC3)n(C(C)C)n1 [Taselisib]; details: max 10 µM
Outline: as §1

[26] = compound: Cn1cnc2c(F)c(Nc3ccc(Br)cc3Cl)c(C(=O)NOCCO)cc21 [Selumetinib]; details: max 10 µM
Outline: as §1

[27] = compound: NC1(c2ccc(-c3nc4ccn5c(=O)[nH]nc5c4cc3-c3ccccc3)cc2)CCC1 [MK-2206]; details: max 10 µM
Outline: as §1

[28] = compound: O=C(c1cc(Cc2n[nH]c(=O)c3ccccc23)ccc1F)N1CCN(C(=O)C2CC2)CC1 [Olaparib]; details: max 10 µM
Outline: as §1

Cell Line	IC50, cell viability 72 h [1] [nM]	IC50, cell viability 72 h [2] [nM]	IC50, cell viability 72 h [3] [nM]	IC50, cell viability 72 h [4] [nM]	IC50, cell viability 72 h [5] [nM]	IC50, cell viability 72 h [6] [nM]	IC50, cell viability 72 h [7] [nM]	IC50, cell viability 72 h [8] [nM]	IC50, cell viability 72 h [9] [nM]	IC50, cell viability 72 h [10] [nM]	IC50, cell viability 72 h [11] [nM]	IC50, cell viability 72 h [12] [nM]	IC50, cell viability 72 h [13] [nM]	IC50, cell viability 72 h [14] [nM]	IC50, cell viability 72 h [15] [nM]	IC50, cell viability 72 h [16] [nM]	IC50, cell viability 72 h [17] [nM]	IC50, cell viability 72 h [18] [nM]	IC50, cell viability 72 h [19] [nM]	IC50, cell viability 72 h [20] [nM]	IC50, cell viability 72 h [21] [nM]	IC50, cell viability 72 h [22] [nM]	IC50, cell viability 72 h [23] [nM]	IC50, cell viability 72 h [24] [nM]	IC50, cell viability 72 h [25] [nM]	IC50, cell viability 72 h [26] [nM]	IC50, cell viability 72 h [27] [nM]	IC50, cell viability 72 h [28] [nM]
SBC-5 (Small Cell Lung Carcinoma)	> 10000	1140	> 1000	> 10000	> 300	> 1000	> 2000	> 1	> 1000	20.2	> 3000	> 1000	3250	> 10000	79.5	> 1000	507	> 10000	> 3000	7270	> 1000	5870	> 1000	> 10000	4640	> 10000	> 10000	> 10000
SCC90 (Head and Neck Carcinoma)	2300	> 3000	7.16	> 10000	> 300	> 1000	> 2000	> 1	> 1000	> 300	> 3000	> 1000	7380	970	122	> 1000	> 1000	882	> 3000	> 10000	> 1000	> 10000	266	> 10000	1900	497	8220	> 10000
SK-N-DZ (Neuroblastoma)	> 10000	278	> 1000	5330	> 300	> 1000	> 2000	> 1	> 1000	24.7	> 3000	628	256	> 10000	16.9	748	294	5560	> 3000	1860	> 1000	2390	> 1000	> 10000	> 10000	> 10000		> 10000
SNU-1 (Gastric Carcinoma)	> 10000	1350	757	> 10000	> 300	> 1000	> 2000	> 1	> 1000	12.9	> 3000	> 1000	> 10000	> 10000	97.1	237	265	> 10000	> 3000	> 10000	> 1000	5010	938	> 10000	9030	> 10000		> 10000
SUP-HD1 (Hodgkin's Lymphoma)	7900	1330	> 1000	> 10000	> 300	15.6	> 2000	> 1	995	2.49	> 3000	12.6	5400	> 10000	15.5	99.6	224	> 10000	> 3000	6540	> 1000	4040	516	> 10000	5270	> 10000		> 10000
TOV-21G (Ovarian Carcinoma)	1550	754	> 1000	> 10000	> 300	> 1000	139	> 1	> 1000	148	> 3000	> 1000	2950	> 10000	299	> 1000	334	> 10000	> 3000	9300	> 1000	3650	> 1000	> 10000	6230	> 10000		> 10000
